Data taken from ChEMBL document CHEMBL3885861, “Open TG-GATES”.

Species: Rattus norvegicus
Assay: Open TG-GATES - Regimen: Daily Repeat
Format: toxicity, organism-based, Sprague-Dawley
Set-up: regimen Daily Repeat, gender Male, age 6 weeks
Settings: in vivo, po, 0 mg/kg, route gavage, dose level Control; for APTT / Bas / Eos / Fbg / Hb / Ht / Lym / MCH / MCHC / MCV / Mono / Neu / PT / Plat / RBC / Ret / WBC: tissue Blood; for KIDNEY_L / KIDNEY_R / KIDNEY_TOTAL: tissue Kidney; for LIVER: tissue Liver; for A/G / ALP / ALT / AST / BUN / CRE / Ca / Cl / DBIL / GLC / IP / K / LDH / Na / PL / RALB / TBIL / TC / TG / TP / gamma-GTP: tissue Plasma

With `Cn1cnc([N+](=O)[O-])c1Sc1ncnc2nc[nH]c12` [AZATHIOPRINE] the TERMINAL_BW (72 h, time 3 day) was 200.7 g, the APTT (72 h, time 3 day) was 21.5 s and the Bas (72 h, time 3 day) was 0%. For the same compound, the Eos (72 h, time 3 day) was 0.8%, the Fbg (72 h, time 3 day) was 305.2 mg/dL and the Hb (72 h, time 3 day) was 13.5 g/dL. The Ht (72 h, time 3 day) was 39.8%, the Lym (72 h, time 3 day) was 80.4% and the MCH (72 h, time 3 day) was 21.4 pg. The MCHC (72 h, time 3 day) was 33.8%, the MCV (72 h, time 3 day) was 63.1 fL and the Mono (72 h, time 3 day) was 2.2%. The Neu (72 h, time 3 day) was 15.4%, the PT (72 h, time 3 day) was 16.3 s and the Plat (72 h, time 3 day) was 129.4 x10_4/uL. For the same compound, the RBC (72 h, time 3 day) was 630.8 x10_4/ul, the Ret (72 h, time 3 day) was 8% and the WBC (72 h, time 3 day) was 91.1 x10_2/uL. For the same compound, the KIDNEY_L (72 h, time 3 day) was 0.9 g, the KIDNEY_R (72 h, time 3 day) was 0.9 g and the KIDNEY_TOTAL (72 h, time 3 day) was 1.8 g. For the same compound, the LIVER (72 h, time 3 day) was 9.6 g, the A/G (72 h, time 3 day) was 1.2 and the ALP (72 h, time 3 day) was 1684.4 IU/L. For the same compound, the ALT (72 h, time 3 day) was 44.2 IU/L, the AST (72 h, time 3 day) was 69.2 IU/L and the BUN (72 h, time 3 day) was 16.6 mg/dL. The CRE (72 h, time 3 day) was 0.1 mg/dL, the Ca (72 h, time 3 day) was 11.2 mg/dL and the Cl (72 h, time 3 day) was 105.8 meq/L. It also gave a DBIL (72 h, time 3 day) of 0 mg/dL, a GLC (72 h, time 3 day) of 194.4 mg/dL and an IP (72 h, time 3 day) of 7.2 mg/dL. The K (72 h, time 3 day) was 3.9 meq/L, the LDH (72 h, time 3 day) was 220.4 IU/L and the Na (72 h, time 3 day) was 144 meq/L. The PL (72 h, time 3 day) was 157.8 mg/dL, the RALB (72 h, time 3 day) was 3 g/dL and the TBIL (72 h, time 3 day) was 0.006 mg/dL. The TC (72 h, time 3 day) was 79.8 mg/dL, the TG (72 h, time 3 day) was 115.6 mg/dL and the TP (72 h, time 3 day) was 5.5 g/dL. The gamma-GTP (72 h, time 3 day) was 1 IU/L, the TERMINAL_BW ([…], time 7 day) was 246.2 g and the TERMINAL_BW ([…], time 14 day) was 269.5 g. For the same compound, the TERMINAL_BW ([…], time 28 day) was 356.1 g, the APTT ([…], time 7 day) was 21.9 s and the Bas ([…], time 7 day) was 0%. The Eos ([…], time 7 day) was 0.8%, the Fbg ([…], time 7 day) was 327.8 mg/dL and the Hb ([…], time 7 day) was 13.8 g/dL. For the same compound, the Ht ([…], time 7 day) was 39.8%, the Lym ([…], time 7 day) was 77.4% and the MCH ([…], time 7 day) was 21.9 pg. The MCHC ([…], time 7 day) was 34.7%, the MCV ([…], time 7 day) was 63 fL and the Mono ([…], time 7 day) was 2.4%. For the same compound, the Neu ([…], time 7 day) was 18.2%, the PT ([…], time 7 day) was 15.8 s and the Plat ([…], time 7 day) was 123.7 x10_4/uL. It also gave an RBC ([…], time 7 day) of 631.4 x10_4/ul, a Ret ([…], time 7 day) of 6.8% and a WBC ([…], time 7 day) of 129.6 x10_2/uL. It also gave an APTT ([…], time 14 day) of 22.4 s, a Bas ([…], time 14 day) of 0% and an Eos ([…], time 14 day) of 0.8%. For the same compound, the Fbg ([…], time 14 day) was 309 mg/dL, the Hb ([…], time 14 day) was 14.9 g/dL and the Ht ([…], time 14 day) was 41.2%. It also gave a Lym ([…], time 14 day) of 87%, an MCH ([…], time 14 day) of 21.4 pg and an MCHC ([…], time 14 day) of 36.1%. The MCV ([…], time 14 day) was 59.4 fL, the Mono ([…], time 14 day) was 1.4% and the Neu ([…], time 14 day) was 10%. It also gave a PT ([…], time 14 day) of 16.9 s, a Plat ([…], time 14 day) of 103.8 x10_4/uL and an RBC ([…], time 14 day) of 694.4 x10_4/ul. The Ret ([…], time 14 day) was 4%, the WBC ([…], time 14 day) was 113.3 x10_2/uL and the APTT ([…], time 28 day) was 23.7 s. For the same compound, the Bas ([…], time 28 day) was 0%, the Eos ([…], time 28 day) was 1% and the Fbg ([…], time 28 day) was 314.8 mg/dL. The Hb ([…], time 28 day) was 15.3 g/dL, the Ht ([…], time 28 day) was 44.8% and the Lym ([…], time 28 day) was 84.8%. It also gave an MCH ([…], time 28 day) of 19.6 pg, an MCHC ([…], time 28 day) of 34.3% and an MCV ([…], time 28 day) of 57.1 fL. For the same compound, the Mono ([…], time 28 day) was 1.4%, the Neu ([…], time 28 day) was 12% and the PT ([…], time 28 day) was 17.1 s. The Plat ([…], time 28 day) was 109.1 x10_4/uL, the RBC ([…], time 28 day) was 784 x10_4/ul and the Ret ([…], time 28 day) was 2.7%. The WBC ([…], time 28 day) was 122.9 x10_2/uL, the KIDNEY_L ([…], time 7 day) was 1 g and the KIDNEY_R ([…], time 7 day) was 1.1 g. It also gave a KIDNEY_TOTAL ([…], time 7 day) of 2.1 g, a KIDNEY_L ([…], time 14 day) of 1.1 g and a KIDNEY_R ([…], time 14 day) of 1.1 g. It also gave a KIDNEY_TOTAL ([…], time 14 day) of 2.2 g, a KIDNEY_L ([…], time 28 day) of 1.2 g and a KIDNEY_R ([…], time 28 day) of 1.2 g. For the same compound, the KIDNEY_TOTAL ([…], time 28 day) was 2.4 g, the LIVER ([…], time 7 day) was 11.4 g and the LIVER ([…], time 14 day) was 11.7 g. For the same compound, the LIVER ([…], time 28 day) was 14.3 g, the A/G ([…], time 7 day) was 1.2 and the ALP ([…], time 7 day) was 1579.8 IU/L. The ALT ([…], time 7 day) was 42.4 IU/L, the AST ([…], time 7 day) was 72 IU/L and the BUN ([…], time 7 day) was 20.2 mg/dL. The CRE ([…], time 7 day) was 0.2 mg/dL, the Ca ([…], time 7 day) was 10.8 mg/dL and the Cl ([…], time 7 day) was 107.2 meq/L. It also gave a DBIL ([…], time 7 day) of 0 mg/dL, a GLC ([…], time 7 day) of 201.4 mg/dL and an IP ([…], time 7 day) of 6.6 mg/dL. It also gave a K ([…], time 7 day) of 4.3 meq/L, an LDH ([…], time 7 day) of 194.8 IU/L and a Na ([…], time 7 day) of 143.2 meq/L. It also gave a PL ([…], time 7 day) of 156.6 mg/dL, an RALB ([…], time 7 day) of 3 g/dL and a TBIL ([…], time 7 day) of 0.004 mg/dL. For the same compound, the TC ([…], time 7 day) was 80 mg/dL, the TG ([…], time 7 day) was 118.4 mg/dL and the TP ([…], time 7 day) was 5.5 g/dL. For the same compound, the gamma-GTP ([…], time 7 day) was 1.2 IU/L, the A/G ([…], time 14 day) was 1.1 and the ALP ([…], time 14 day) was 1520.8 IU/L. For the same compound, the ALT ([…], time 14 day) was 35.6 IU/L, the AST ([…], time 14 day) was 66.8 IU/L and the BUN ([…], time 14 day) was 17.8 mg/dL. The CRE ([…], time 14 day) was 0.2 mg/dL, the Ca ([…], time 14 day) was 10.4 mg/dL and the Cl ([…], time 14 day) was 107 meq/L. For the same compound, the DBIL ([…], time 14 day) was 0 mg/dL, the GLC ([…], time 14 day) was 178.2 mg/dL and the IP ([…], time 14 day) was 6.5 mg/dL. For the same compound, the K ([…], time 14 day) was 4.3 meq/L, the LDH ([…], time 14 day) was 153.2 IU/L and the Na ([…], time 14 day) was 143.6 meq/L. The PL ([…], time 14 day) was 135.6 mg/dL, the RALB ([…], time 14 day) was 3 g/dL and the TBIL ([…], time 14 day) was 0.004 mg/dL. It also gave a TC ([…], time 14 day) of 63.4 mg/dL, a TG ([…], time 14 day) of 146.2 mg/dL and a TP ([…], time 14 day) of 5.8 g/dL. It also gave a gamma-GTP ([…], time 14 day) of 1.2 IU/L, an A/G ([…], time 28 day) of 1.1 and an ALP ([…], time 28 day) of 1240.4 IU/L. It also gave an ALT ([…], time 28 day) of 44.8 IU/L, an AST ([…], time 28 day) of 71.6 IU/L and a BUN ([…], time 28 day) of 18.6 mg/dL. For the same compound, the CRE ([…], time 28 day) was 0.2 mg/dL, the Ca ([…], time 28 day) was 10.3 mg/dL and the Cl ([…], time 28 day) was 106.6 meq/L. The DBIL ([…], time 28 day) was 0 mg/dL, the GLC ([…], time 28 day) was 202.4 mg/dL and the IP ([…], time 28 day) was 5.5 mg/dL. It also gave a K ([…], time 28 day) of 3.7 meq/L, an LDH ([…], time 28 day) of 175.2 IU/L and a Na ([…], time 28 day) of 141.4 meq/L. It also gave a PL ([…], time 28 day) of 145.8 mg/dL, an RALB ([…], time 28 day) of 3.1 g/dL and a TBIL ([…], time 28 day) of 0.01 mg/dL. It also gave a TC ([…], time 28 day) of 66 mg/dL, a TG ([…], time 28 day) of 159.8 mg/dL and a TP ([…], time 28 day) of 6 g/dL. It also gave a gamma-GTP ([…], time 28 day) of 1 IU/L.
